Assay [1] addresses IRAK4 kinase (Homo sapiens (Human), UniProt Q9NWZ3). Nature of the assay: IRAK4 kinase activity assay (mobility shift, Km ATP). The format is biochemical. To be noted: Km ATP (15.6 μM ATP), 1 nM IRAK4, 60 min room temperature. The protocol: Inhibitory activity (IC50) of the compounds against IRAK4 kinase under Km ATP was detected through mobility spectrum analysis (MSA). IRAK4 kinase was purchased from Carna (Cat. No.: 09-145, batch No.: 14CBS-0020H), and Kinase Substrate 8 was purchased from GL Biochem (Cat. No.: 112396, batch No.: P171207-MJI112396).
The compounds were prepared with DMSO to 100 times the final reaction concentration and diluted to 10 concentrations in sequence at a 3-fold dilution ratio starting from 1 μM. Then 0.25 μL was transferred to a 384-well plate using Echo550. A 1× kinase buffer (50 mM HEPES, pH=7.5, 0.0015% Brij-35, 10 mM MgCl2, 2 mM DTT) was used to prepare a kinase solution of 2.5 times the final concentration. Then 10 μL of the kinase solution of 2.5 times the final concentration was added to each compound well, shaken and mixed uniformly, and incubated at room temperature for 10 min. A 1× kinase buffer was used to prepare a mixed solution of ATP and substrate Kinase Substrate 8 with a concentration of 25/15 times the final concentration. 15 μL of the mixed solution of ATP and the substrate with a concentration of 25/15 times the final concentration were added to each well (the final concentration of IRAK4 kinase was 1 nM, the final concentration of the substrate was 3 μM, and the final concentration of ATP was 15.6 μM), shaken and mixed uniformly, and reacted at room temperature for 60 min. Finally, 30 μL of stopping solution (100 mM HEPES, pH=7.5, 0.0015% Brij-35, 0.2% Coating Reagent #3, 50 mM EDTA) was added to terminate the reaction. CaliperEZ Reader II was used to read data about conversion rates that was then converted into data about inhibition rates. According to the data about the inhibition rate at each concentration, the half maximal inhibitory concentration (IC50) (Table 1) was calculated by a Logit method.

For assay [2], the system named is TNFα secretion in THP-1 cells. Nature of the assay: Cellular activity assay: LPS-stimulated TNFα secretion in THP-1 cells (ELISA). To be noted: Homo sapiens, LPS 1 μg/mL, 4.5 h, read-out: IC50 inhibiting TNFα secretion in THP-1 cells stimulated by LPS. The format is cell-based. The protocol: Inhibition of IRAK4 by the compounds of the present application was evaluated in THP-1 cells for cellular activity. The stimulus used in this experiment was LPS. LPS is a TLR4 agonist that stimulates the secretion of TNFα through TLR-IRAK4 signaling pathway in the THP-1 cells. Once the signaling pathway is inhibited by IRAK4 inhibitors, the production of TNFα is inhibited. In this experiment, the secretion of TNFα was detected by ELISA.
150 μL of RPMI-1640 medium (Gibco, catalog No.: 11875-085) solution containing 10000 THP-1 cells were added to each well of a 96-well plate and then 25 μL of a test compound solution of 8 times the final concentration (starting from […], 3-fold dilution, 8 concentrations, each concentration containing 4% DMSO RPMI-1640 medium) were added, and they were mixed uniformly and incubated at 37° C. for 30 min. 25 μL of RPMI-1640 medium solution containing LPS were added to each well (the final LPS concentration was 1 μg/mL and the final DMSO concentration was 0.5%), mixed uniformaly, and incubated at 37° C. for 4.5 h. The 96-well plate was rotated at 2000 rpm for 5 min, then 50 μL of supernatant was taken, and the TNFα content in the supernatant was determined with a human ELISA kit (Life Technologies, catalog No.: KHC3011). The IC50 (Table 2) of the compound was calculated by XL-Fit.
(An ELISA detects its analyte on a solid surface through an enzyme-linked reagent.)

The results in this text go back to patent US11958831B2, “Pyrazole compounds, pharmaceutical compositions thereof and use thereof” (ARTIVILA (SHENZHEN) INNOVATION CENTER, LTD., priority 2018, dated 2024).

Structures are written as SMILES.

Chain of IRAK4 kinase (Q9NWZ3 whole entry): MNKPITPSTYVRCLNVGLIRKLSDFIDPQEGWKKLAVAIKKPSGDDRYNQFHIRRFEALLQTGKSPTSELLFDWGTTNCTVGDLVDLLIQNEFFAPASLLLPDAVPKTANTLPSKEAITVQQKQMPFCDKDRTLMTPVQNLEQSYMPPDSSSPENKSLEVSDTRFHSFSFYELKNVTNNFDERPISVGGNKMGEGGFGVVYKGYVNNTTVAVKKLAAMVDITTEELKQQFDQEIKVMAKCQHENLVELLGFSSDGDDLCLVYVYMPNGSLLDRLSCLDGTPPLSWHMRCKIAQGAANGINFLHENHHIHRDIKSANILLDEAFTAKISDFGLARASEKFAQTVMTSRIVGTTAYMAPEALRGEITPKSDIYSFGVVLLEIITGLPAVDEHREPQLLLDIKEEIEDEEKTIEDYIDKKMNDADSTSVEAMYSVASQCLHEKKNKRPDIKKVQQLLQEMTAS

One may read the IC50 as the midpoint of a concentration-inhibition curve. As to `CC(C)(O)C(=O)N1CCC(N2CC(n3cc(NC(=O)c4cccc(-c5cc[nH]n5)n4)c(C(F)F)n3)C2)CC1` [Example 41, N-(3-(difluoromethyl)-1-(1-(1-(2-hydroxy-2-methylpropionyl)piperidin-4-yl)azetidin-3-yl)-1H-pyrazol-4-yl)-6-(1H-pyrazol-3-yl)-2-picolinamide], the results for the IC50 in assay [1] and in assay [2] were 0.43 nM and 23 nM, respectively.

`CC(C)(C#N)n1cc(-c2cccc(C(=O)Nc3cn(C4CN(C5CCN(C(=O)CO)CC5)C4)nc3C(F)F)n2)cn1` [Example 43, 6-(1-(2-Cyanopropan-2-yl)-1H-pyrazol-4-yl)-N-(3-(difluoromethyl)-1-(1-(1-(2-hydroxyacetyl)piperidin-4-yl)azetidin-3-yl)-1H-pyrazol-4-yl)-2-picolinamide]: the IC50 came to 0.97 nM in assay [1] and 42 nM in assay [2].
